For the assay, the target named is human TPH1 (Homo sapiens (Human), UniProt P17752). Nature of the assay: Biochemical in vitro assay using fluorescence readout (TPH1 inhibition).
Setting [1] is: human TPH1, fluorescence readout.
[2] abbreviates: full length human TPH1, 40 μM L-tryptophan, 15° C., 60 minutes, fluorescence at 540 nm, mean if determined several times.

Sequence of human TPH1 (P17752 whole entry): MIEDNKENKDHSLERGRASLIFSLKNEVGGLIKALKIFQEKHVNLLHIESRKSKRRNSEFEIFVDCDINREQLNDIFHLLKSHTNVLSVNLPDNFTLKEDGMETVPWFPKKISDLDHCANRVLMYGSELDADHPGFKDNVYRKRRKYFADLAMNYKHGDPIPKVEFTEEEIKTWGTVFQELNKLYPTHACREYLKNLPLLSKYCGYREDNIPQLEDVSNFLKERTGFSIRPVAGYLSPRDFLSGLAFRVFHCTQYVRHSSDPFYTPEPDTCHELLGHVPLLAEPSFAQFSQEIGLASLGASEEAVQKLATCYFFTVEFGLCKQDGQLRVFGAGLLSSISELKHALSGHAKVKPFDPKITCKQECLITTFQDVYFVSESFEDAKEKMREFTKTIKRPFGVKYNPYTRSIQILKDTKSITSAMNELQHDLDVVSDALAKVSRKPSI

As usually defined, the IC50 is the concentration at which inhibition is half-maximal. A high value points to lower potency. Compound `Cc1ccc(C2c3c(nc4sc(C)nn34)CCN2C(=O)COc2ccc(C(=O)N(C)C3CC3)nc2Cl)c(F)c1` (stereo not shown) [Example 1.53.3, 6-chloro-N-cyclopropyl-5-(2-(5-(2-fluoro-4-methyl-phenyl)-2-methyl-7,8-dihydro-[1,3,4]thiadiazolo-[2′,3′:2,3]imidazo[4,5-c]pyridin-6(5H)-yl)-2-oxoethoxy)-N-methylpicolinamide] came in with an IC50 under setting [1] of 0.015 µM. Same read-out and setting: then `CCc1ncccc1OCC(=O)N1CCc2nc3sc(C)nn3c2C1c1cc(CN(C)C)cs1` (stereo not shown) [Example 1.8.2, 1-(5-(4-((dimethylamino)methyl)thiophen-2-yl)-2-methyl-7,8-dihydro-[1,3,4]thiadiazolo[2′,3′:2,3]imidazo[4,5-c]pyridin-6(5H)-yl)-2-((2-ethylpyridin-3-yl)oxy)ethanone], with 0.14 µM. `Cc1nn2c3c(nc2s1)CCN(C(=O)COc1ccc(N2CCOCC2)nc1Cl)C3c1sc(-c2nnn[nH]2)cc1F` (stereo not shown) [Example 1.70.1, 2-((2-Chloro-6-morpholinopyridin-3-yl)oxy)-1-(5-(3-fluoro-5-(1H-tetrazol-5-yl)thiophen-2-yl)-2-methyl-7,8-dihydro-[1,3,4]thiadiazolo[2′,3′:2,3]imidazo-[4,5-c]pyridin-6(5H)-yl)ethanone]: half-maximal inhibition under setting [2] (IC50) required 0.013 µM.

Under setting [1], `Cc1nn2c3c(nc2s1)CCN(C(=O)COc1ccc(C(=O)N(C)C2CC2)nc1Cl)C3c1ccc(Cl)cc1F` (stereo not shown) [Example 1.4.46, 6-chloro-5-(2-(5-(4-chloro-2-fluorophenyl)-2-methyl-7,8-dihydro-[1,3,4]thiadiazolo[2′,3′:2,3]imidazo[4,5-c]pyridin-6(5H)-yl)-2-oxoethoxy)-N-cyclopropyl-N-methylpicolinamide] yielded an IC50 of 0.016 µM. `CCc1ncccc1OCC(=O)N1CCc2nc3sccn3c2C1c1ccc(C(F)F)cc1F` (stereo not shown) [Example 6.16.1, 1-(5-(4-(difluoromethyl)-2-fluorophenyl)-7,8-dihydro-thiazolo[2′,3′:2,3]imidazo[4,5-c]pyridin-6(5H)-yl)-2-((2-ethylpyridin-3-yl)oxy)ethanone] came in with a half-inhibitory concentration (IC50) under setting [1] of 0.014 µM. Still for that read-out and setting: then `Cc1ccc(C2c3c(nc4sc(C(F)F)nn34)CCN2C(=O)COc2ccc(NS(C)(=O)=O)nc2Cl)c(F)c1` (stereo not shown) [Example 8.2.1, N-(6-chloro-5-(2-(2-(difluoromethyl)-5-(2-fluoro-4-methylphenyl)-7,8-dihydro-[1,3,4]thiadiazolo[2′,3′:2,3]imidazo[4,5-c]pyridin-6(5H)-yl)-2-oxoethoxy)pyridin-2-yl)methanesulfonamide], with 0.024 µM; and `CCc1nc(C(F)F)ccc1OCC(=O)N1CCc2nc3sc(C)nn3c2C1c1ccc(Cl)cc1F` (stereo not shown) [Example 1.4.6, 1-(5-(4-chloro-2-fluorophenyl)-2-methyl-7,8-dihydro-[1,3,4]thiadiazolo[2′,3′:2,3]imidazo[4,5-c]pyridin-6(5H)-yl)-2-((6-(difluoromethyl)-2-ethylpyridin-3-yl)oxy)ethanone], with 0.011 µM. On the same count and under the same terms, with `Cc1nn2c3c(nc2s1)CCN(C(=O)COc1ccc(N2CCOCC2)cc1Cl)C3c1cnc(C2CC2)nc1` (stereo not shown) [Example 1.10.2, 2-(2-chloro-4-morpholinophenoxy)-1-(5-(2-cyclopropyl-pyrimidin-5-yl)-2-methyl-7,8-dihydro-[1,3,4]thiadiazolo [2′,3′:2,3]imidazo[4,5-c]pyridin-6(5H)-yl)ethanone] the figure was 0.018 µM. `Cc1nn2c3c(nc2s1)CCN(C(=O)COc1ccc(N2CCOCC2)nc1Cl)C3c1nc(N)sc1F` (stereo not shown) [Example 1.52.1, 1-(5-(2-Amino-5-fluorothiazol-4-yl)-2-methyl-7,8-dihydro-[1,3,4]thiadiazolo[2′,3′:2,3]-imidazo[4,5-c]pyridin-6(5H)-yl)-2-((2-chloro-6-morpholinopyridin-3-yl)oxy)ethanone] returned a half-inhibitory concentration (IC50) under setting [2] of 0.006 µM.

`Cc1nn2c3c(nc2s1)CCN(C(=O)COc1ccc(C(=O)N(C)C)nc1Cl)C3c1ccc(C2CC2)cc1F` (stereo not shown) [Example 1.6.25, 6-chloro-5-(2-(5-(4-cyclopropyl-2-fluorophenyl)-2-methyl-7,8-dihydro-[1,3,4]thiadiazolo[2′,3′:2,3]imidazo[4,5-c]pyridin-6(5H)-yl)-2-oxoethoxy)-N,N-dimethylpicolinamide] had a 50% inhibitory concentration (IC50) under setting [1] of 0.004 µM. On the same count and under the same terms, with `Cc1nn2c3c(nc2s1)CCN(C(=O)COc1cccc2c1ccn2C)C3c1ccc(Cl)cc1F` (stereo not shown) [Example 1.4.62, 1-(5-(4-chloro-2-fluorophenyl)-2-methyl-7,8-dihydro-[1,3,4]thiadiazolo[2′,3′:2,3]imidazo[4,5-c]pyridin-6(5H)-yl)-2-((1-methyl-1H-indol-4-yl)oxy)ethan-1-one] the figure was 0.015 µM. As for `N#Cc1ccc(OCC(=O)N2CCc3nc4sc(C5CC5)nn4c3C2c2ccc(Cl)cc2F)c(Cl)c1` (stereo not shown) [Example 4.1.2, 3-chloro-4-(2-(5-(4-chloro-2-fluorophenyl)-2-cyclopropyl-7,8-dihydro-[1,3,4]thiadiazolo-[2′,3′:2,3]imidazo[4,5-c]pyridin-6(5H)-yl)-2-oxoethoxy)benzonitrile], the IC50 under setting [1] came out at 0.023 µM.

Under setting [1], `Cc1ccccc1OCC(=O)N1CCc2nc3sccn3c2C1c1cccnc1F` (stereo not shown) [Example 6.2.4, 1-(5-(2-fluoropyridin-3-yl)-7,8-dihydrothiazolo[2′,3′:2,3]-imidazo[4,5-c]pyridin-6(5H)-yl)-2-(o-tolyloxy)ethanone] returned an IC50 of 0.266 µM.

Turning to `COCCOc1ccc(C2c3c(nc4sc(C)nn34)CCN2C(=O)COc2ccc(C(=O)NC3CC3)nc2Cl)c(F)c1` (stereo not shown) [Example 1.83.1, 6-chloro-N-cyclopropyl-5-(2-(5-(2-fluoro-4-(2-methoxyethoxy)phenyl)-2-methyl-7,8-dihydro-[1,3,4]thiadiazolo[2′,3′:2,3]imidazo[4,5-c]pyridin-6(5H)-yl)-2-oxoethoxy)picolinamide], under setting [1], half-maximal inhibition (IC50) required 0.024 µM. For `Cc1nn2c3c(nc2s1)CCN(C(=O)COc1ccc(C(=O)NC2CC2)nc1Cl)C3c1ccc(OCCO)cc1F` (stereo not shown) [Example 1.84.1, 6-chloro-N-cyclopropyl-5-(2-(5-(2-fluoro-4-(2-hydroxyethoxy)phenyl)-2-methyl-7,8-dihydro-[1,3,4]thiadiazolo[2′,3′:2,3]imidazo[4,5-c]pyridin-6(5H)-yl)-2-oxoethoxy)picolinamide], under setting [2], half-maximal inhibition (IC50) was put at 0.014 µM. `Cc1nn2c3c(nc2s1)CCN(C(=O)COc1ccc(C(F)(F)F)cc1Cl)C3c1scnc1C` (stereo not shown) [Example 1.32.3, 2-(2-chloro-4-(trifluoromethyl)phenoxy)-1-(2-methyl-5-(4-methylthiazol-5-yl)-7,8-dihydro-[1,3,4]thiadiazolo [2′,3′:2,3]imidazo[4,5-c]pyridin-6(5H)-yl)ethanone] returned an IC50 under setting [1] of 0.01 µM. On the same count and under the same terms, then `Cc1nn2c3c(nc2s1)CCN(C(=O)COc1ccc(N(C)C)nc1C)C3c1ccc(C2CC2)cc1F` (stereo not shown) [Example 1.6.15, 1-(5-(4-cyclopropyl-2-fluorophenyl)-2-methyl-7,8-dihydro-[1,3,4]thiadiazolo[2′,3′:2,3]imidazo[4,5-c]pyridin-6(5H)-yl)-2-((6-(dimethylamino)-2-methylpyridin-3-yl)oxy)ethanone], with 0.006 µM; and `CCOC(=O)c1ncc(C2c3c(nc4sc(C)nn34)CCN2C(=O)COc2ccc(N3CCOCC3)nc2Cl)s1` (stereo not shown) [Example 1.30.1, Ethyl 5-(6-(2-((2-chloro-6-morpholinopyridin-3-yl)oxy)acetyl)-2-methyl-5,6,7,8-tetrahydro-[1,3,4]thiadiazolo [2′,3′:2,3]imidazo[4,5-c]pyridin-5-yl)thiazole-2-carboxylate], with 0.009 µM; and `Cc1nn2c3c(nc2s1)CCN(C(=O)COc1cc(F)c(I)nc1Cl)C3c1ncc(C2CC2)cc1F` (stereo not shown) [Example 1.14.6, 2-((2-chloro-5-fluoro-6-iodopyridin-3-yl)oxy)-1-(5-(5-cyclopropyl-3-fluoropyridin-2-yl)-2-methyl-7,8-dihydro-[1,3,4]thiadiazolo[2′,3′:2,3]imidazo[4,5-c]pyridin-6(5H)-yl)ethanone], with 0.006 µM. Consider `CN(C)C(=O)c1ccc(OCC(=O)N2CCc3nc4sccn4c3C2c2sccc2F)c(Cl)n1` (stereo not shown) [Example 6.8.2, 6-chloro-5-(2-(5-(3-fluorothiophen-2-yl)-7,8-dihydro-thiazolo[2′,3′:2,3]imidazo[4,5-c]pyridin-6(5H)-yl)-2-oxoethoxy)-N,N-dimethylpicolinamide], for which the midpoint of inhibition under setting [1], the IC50, lay at 0.005 µM. On to `Cc1nn2c3c(nc2s1)CCN(C(=O)COc1ccc(N2CCOCC2)nc1Cl)C3c1cc(C(=O)O)cs1` (stereo not shown) [Example 1.46.1, 5-(6-(2-((2-chloro-6-morpholinopyridin-3-yl)oxy)acetyl)-2-methyl-5,6,7,8-tetrahydro-[1,3,4]thiadiazolo[2′,3′:2,3]imidazo[4,5-c]pyridin-5-yl)thiophene-3-carboxylic acid], for which, under setting [2], the half-inhibitory concentration (IC50) is 0.018 µM. Still for that read-out and setting: then `CNC(=O)c1ccc(OCC(=O)N2CCc3nc4sc(C)nn4c3C2c2cc(C(=O)N(C)C)cs2)c(Cl)n1` (stereo not shown) [Example 1.9.6, 6-Chloro-5-(2-(5-(4-(dimethylcarbamoyl)thiophen-2-yl)-2-methyl-7,8-dihydro-[1,3,4]-thiadiazolo[2′,3′:2,3]imidazo[4,5-c]pyridin-6(5H)-yl)-2-oxoethoxy)-N-methyl-picolinamide], with 0.099 µM.

For the compound `Cc1nn2c3c(nc2s1)CCN(C(=O)COc1ccc(S(N)(=O)=O)cc1C)C3c1sccc1F` (stereo not shown) [Example 1.23.2, 4-(2-(5-(3-fluorothiophen-2-yl)-2-methyl-7,8-dihydro-[1,3,4]thiadiazolo[2′,3′:2,3]imidazo[4,5-c]pyridin-6(5H)-yl)-2-oxoethoxy)-3-methylbenzenesulfonamide], the half-inhibitory concentration (IC50) under setting [1] worked out at 0.089 µM. The compound `CCc1nc(NS(C)(=O)=O)ccc1OCC(=O)N1CCc2nc3sc(CF)nn3c2C1c1ccc(Cl)cc1F` (stereo not shown) [Example 7.1.2, N-(5-(2-(5-(4-chloro-2-fluorophenyl)-2-(fluoromethyl)-7,8-dihydro-[1,3,4]thiadiazolo[2′,3′:2,3]imidazo[4,5-c]pyridin-6(5H)-yl)-2-oxoethoxy)-6-ethylpyridin-2-yl)methanesulfonamide] had a half-maximal inhibitory concentration (IC50) under setting [1] of 0.008 µM. Still for that read-out and setting: then `Cc1nc(C)c(C2c3c(nc4sc(C)nn34)CCN2C(=O)COc2ccc(NS(C)(=O)=O)nc2Cl)s1` (stereo not shown) [Example 1.68.2, N-(6-chloro-5-(2-(5-(2,4-dimethylthiazol-5-yl)-2-methyl-7,8-dihydro-[1,3,4]thiadiazolo[2′,3′:2,3]imidazo[4,5-c]pyridin-6(5H)-yl)-2-oxoethoxy)pyridin-2-yl)methanesulfonamide], with 0.009 µM.

These data come from patent publication US9765092B2, “Tricyclic piperidine compounds” (ACTELION PHARMACEUTICALS LTD, priority 2013, dated 2017).
